Laboratory results reported in US20200253979A1, “THERAPEUTIC METHODS RELATING TO HSP90 INHIBITORS” (AI Therapeutics, Inc., priority 2017, published 2020).

What was measured:
[1] = test system: FLT3 mutants in BaF3 cells; assay: Cell surface FLT3 in transfected BaF3 cells by flow cytometry; assay type: cell-based, murine; settings: BaF3, cell surface expression, 24 hours
Procedure: (§1) We next sought to determine whether MPC-0767 can also promote the degradation of other FLT3 mutants that have been reported to confer resistance to FLT3 inhibitors. To do this, we again utilized the BaF3 murine cell line into which the following FLT3 mutants were transfected: FLT3 wild-type, FLT3-ITD, D835V, FLT3-ITD D835V, D835Y, FLT3-ITD D835Y, D835H, FLT3-ITD D835H, F691L, or FLT3-ITD F691L.
(§2) After puromycin selection, cells were treated with increasing concentrations of MPC-0767 (20-10000 nM) for 24 hours and then stained for cell surface expression of FLT3 (and mutants) and the median signal expression was quantified by flow cytometry.

FLT3 WT in BaF3 cells = assay: as above; assay type: cell-based, murine; settings: BaF3, 20-10000 nM, 24 hours
Procedure: as §1, §2

[2] = test system: cell surface FLT3 in MV-4-11 cells; assay: Cell surface FLT3 by flow cytometry; assay type: cell-based; settings: MV-4-11, 1 μM, 24 hours
Procedure: (§3) To determine whether MPC-0767 can promote the degradation of FLT3-ITD and abolish downstream signaling, MV-4-11 and MOLM-13 cells were treated with vehicle or MPC-0767 (1 μM) for 24 hours. Cells were harvested for flow cytometry to assess cell surface FLT3 protein abundance. In addition, the measurement of a key phosphorylation site of S6 (phospho-S6) was used as a marker for oncogenic FLT3-ITD signaling (Zimmerman et al., Blood. 2013 122(22): 3607-3615). Indeed, in both MV-4-11 and MOLM-13 cells treated with MPC-0767 there was a >65% reduction in cell surface FLT3 (FIGS. 10A and 10B, respectively) and >70% reduction in phospho-S6 (FIGS. 10C and 10D, respectively).

ML2 cells = assay: CellTiter-Glo cell viability (single agent and combination)
Procedure: To determine whether MPC-0767 is efficacious against non-FLT3-ITD AML cells, we tested a panel of FLT3-wild type (FLT3-WT) AML cell lines and primary AML blasts for sensitivity to MPC-0767. Cells were treated with MPC-0767 for 72 hours before determining cell viability using the CellTiter-Glo® assay. […] To test whether the combination of MPC-0767 was synergistic with ATO, we tested a panel of AML cell lines. The cell lines include those harboring FLT3-ITD (MOLM-13, MOLM-14 and MV-4-11) or FLT3 WT (ME-1, THP-1, OCI-AML-2, HL60, NOMO-1, TUR and ML-2).

[3] = test system: MOLM-13 FLT3-ITD AML cell line; assay: Systemic survival xenograft study, MPC-0767 with venetoclax; settings: MPC-0767 100-60 mg/kg QD×24, vs vehicle
Procedure: A systemic survival xenograft study was performed using the MOLM-13 FLT3-ITD harboring AML cell line.
Before tumor cell inoculation, NOD/SCID mice were pre-treated for 2 days with a daily intraperitoneal injection of 100 mg/kg cyclophosphamide to facilitate engraftment of the human MOLM-13 tumor cells. After the injection of cyclophosphamide, the animals were allowed to recover for 24 hours prior to inoculation with human MOLM-13 tumor cells. Each mouse was then inoculated with 1×10^7 MOLM-13 cells in 100 μL PBS via intravenous tail vein injection. Mice were next randomized into 4 groups of 6. […] Viability and body weight loss were monitored daily.

[4] = test system: murine MC38 colon cancer cell line; assay: MC38 syngeneic tumor model
Source text: Tumor size (mm^3), P=0.01 (Student t-test) (A) and percent body weight change (B) are shown.
When the mean tumor volume reached 73 mm^3 in size, mice were randomized into 2 groups of 6. […] Tumor measurements (caliper) were taken on the indicated days. […] Student t-test was used to evaluate the statistical significance of the difference between these groups, P=0.01.

[5] = test system: phospho-S6 in MOLM-13 cells; assay: Phospho-S6 by flow cytometry; assay type: cell-based, human; settings: 24 hours
Procedure: as §3
We next explored whether the synergistic activity of MPC-0767 and ATO was due to a more complete abrogation of FLT3-ITD oncogenic signaling. […] After this time cells were harvested for the assessment of cell surface FLT3 expression by flow cytometry. To additionally measure the effects of abrogating FLT3, we assessed phospho-ERK (pERK) and phospho-S6 (pS6), as these are two known downstream effectors.

PD-L1 on THP-1 cells = assay: PD-L1 expression on THP-1 cells by flow cytometry; assay type: cell-based; settings: IFNγ overnight with MPC-0767 1 μM or 2 uM
Source text: FIG. 29A-D: MPC-0767 repression of PD-L1 expression increases T cell activation. Bar graphs show activation of Jurkat reporter cells with anti-CD3 (A) and PD-L1-dependent inhibition of T cell activation after IFNγ treatment (B). Bars in A&B represent the mean +/− SD of triplicate wells and are representative of three independent experiments. […] Bars in C&D represent the mean +/− SD of three independent experiments.
We next determined whether MPC-0767 reduction of PD-L1 could increase T cell stimulation similar to anti-PD-L1 blocking antibodies. THP-1 cells were treated overnight with IFNγ in the presence or absence of MPC-0767 (1 μM or 2 uM). THP-1 cells were washed and a portion saved for flow cytometry analysis of PD-L1 expression. The remaining cells were incubated with Jurkat reporter cells and anti-CD3 (10 ng/ml) for 6 hours.

HL60 (HL-60) cells = assay: CellTiter-Glo cell viability (single agent and combination); assay type: cell-based; settings: HL60, 72 h
MOLM-13-LUC cells = assay: CellTiter-Glo cell viability; assay type: cell-based; settings: Homo sapiens, 72 hours
Source text: In the clinic, tyrosine kinase inhibitors that target FLT3 initially show positive responses, but patients inevitably relapse due to the development of drug-resistance through various mechanisms, as discussed above.

[6] = test system: BaF3 cells harboring FLT3-ITD; assay: CellTiter-Glo cell viability; assay type: cell-based, murine; settings: Mus musculus, 72 hours
Procedure: After this time cell viability was determined using CTG and EC50 values determined.
(§4) EC50 values were calculated using equation 1 (as described above).
BaF3 cells require the supplementation of IL-3 to activate the IL-3 receptor for growth. However, in BaF3 cells transfected with FLT3-ITD, cells no longer require IL3 as survival is solely driven by oncogenic FLT3 signaling.

[7] = test system: mutant EGFR on the cell surface of PC-9 cells; assay: Cell surface EGFR by flow cytometry; assay type: cell-based; settings: PC-9, 1 μM, 24 hours
Procedure: (§5) FIG. 3A-B: MPC-0767 reduces cell surface EGFR expression in H1975 cells (A) and PC-9 cells (B). Cells were treated with MPC-0767 (1 μM) for 24 hours before being harvested and cell expression of EGFR determined by flow cytometry.
(§6) These findings confirm that MPC-0767 targets and degrades EGFR in lung cancer cell lines.

[8] = test system: mutant EGFR on the cell surface of H1975 cells; assay: Cell surface EGFR by flow cytometry; assay type: cell-based; settings: H1975, 1 μM, 24 hours
Procedure: as §5, §6

[9] = test system: NSCLC cell lines HCC-827, H1975, PC-9 and H1781; assay: CellTiter-Glo cell viability in NSCLC cell lines; assay type: cell-based; settings: 98-50000 nM, 3 days; HCC-827, H1975, PC-9, H1781
Procedure: The NSCLC cell lines HCC-827 (EGFR L858R), H1975 (EGFR L858R/T790M) PC-9 (EGFR Del E746_A750) and H1781 (HER2 G7776insV G/C) were treated with MPC-0767 at a concentration range of 98-50000 nM for 3 days, after which time cell viability was determined using CellTiter-Glo® reagent.

[10] = test system: BaF3 cells harboring FLT3-ITD F691L; assay: CellTiter-Glo cell viability; assay type: cell-based, murine; settings: Mus musculus; BaF3 FLT3-ITD-F691L, 72 hours
Procedure: as §4

C[C@H](N)C(=O)O[C@@H](C)C(=O)N1CCC(CCn2c(Sc3cc4c(cc3Br)OCO4)nc3c(N)ncnc32)CC1 [MPC-0767]
potency against FLT3 mutants compared to FLT3 WT [1]: approximately 5 ×
cell surface expression of FLT3 WT (FLT3 WT in BaF3 cells): reduced cell surface expression of FLT3 WT
reduction in cell surface FLT3 [2]: > 65%
EC50 (ML2 cells; Homo sapiens, ML-2, 72 h): 1.03 µM
MPC-0767 Sensitivity (ML2 cells; ML2, 72 h): Resistant (EC50 values above 1 μM considered resistant)
increase in median survival [3]: 3.5 days
effect on body weight ([4]; oral 150 mg/kg QD×17): without significant effects on body weight
tumor growth inhibition ([4]; oral 150 mg/kg QD×17, P=0.01): 69.5%
reduction in phospho-S6 ([5]; MOLM-13, 1 μM): > 70%
pS6 level ([5]; MOLM-13, MPC-0767 800 nM, ATO 625 nM or combination): reduced
PD-L1 expression on THP-1 cells (PD-L1 on THP-1 cells): dose-dependently reduced PD-L1 expression
MPC-0767 Sensitivity (HL60 (HL-60) cells): Resistant (EC50 values above 1 μM considered resistant)
EC50 (HL60 (HL-60) cells; Homo sapiens, HL-60): 1.96 µM
EC50 (MOLM-13-LUC cells): 0.496 µM
EC50 [6]: 0.497 µM
mutant EGFR on the cell surface [7]: decreased
mutant EGFR on the cell surface [8]: decreased
EC50 (cell viability) [9]: within clinically achievable concentrations
EC50 [10]: 0.391 µM
